The text below walks through data of ChEMBL document CHEMBL1151935, “Improvement of pharmacological properties of irreversible thyroid receptor coactivator binding inhibitors” (J Med Chem, 2009).

A value given as a limit tells only on which side of the number the result lay.

The data set is described as follows: in vitro. Conditions: PAMPA, pH 7.4. On the technique in general: The PAMPA barrier holds no transporters, so it reflects passive diffusion.
On to `CCCCCCSc1cc(Cl)c(C(=O)CCN(C)C)c(Cl)c1`, for which the Papp was found to be 3500 nm/s.

For the molecule `CCCCCCS(=O)(=O)c1cc(Cl)c(C(=O)CCN2CCOCC2)c(Cl)c1`, the Papp stood at 4700 nm/s.

In the case of `CCCCCCOc1cc(C)c(C(=O)CCN(C)C)c(C)c1`, the Papp came out at 6500 nm/s.

As for `CCCCCCS(=O)(=O)c1ccc(C(=O)CCN(C)C)c(Cl)c1`, the apparent permeability coefficient (Papp) was 3800 nm/s.

Molecule `CCCCCCS(=O)(=O)c1cc(Cl)c(C(=O)CCN2CCNC(=O)C2)c(Cl)c1` registered a Papp of 4300 nm/s.

`CCN1CCC(Cc2ccc(C(=O)CCN(C)C)cc2)CC1` yielded a Papp of 1400 nm/s.

`CCCCCCOc1cc(Cl)c(C(=O)CCN2CCN(S(=O)(=O)CC)CC2)c(Cl)c1` returned a Papp of 8600 nm/s.

In turn, `CCCCCS(=O)(=O)Nc1ccc(C(=O)CCN(C)C)cc1` yielded a Papp of 500 nm/s.

Molecule `CCCCCCS(=O)(=O)c1ccc(C(=O)CCN2CCN(S(=O)(=O)CC)CC2)c(Cl)c1` registered a Papp of 3000 nm/s.

The molecule `CCCCCCSc1cc(Cl)c(C(=O)CCN2CC2C)cc1Cl` (configuration not stated) displayed a Papp of 1400 nm/s.

For the molecule `CCCCCCSc1cc(Cl)c(C(=O)CCN(C)C)cc1Cl`, the Papp stood at 3300 nm/s.

Molecule `CCCCCCOc1ccc(C(=O)CCN(C)C)cc1Cc1ccccc1` displayed a Papp of 2300 nm/s.

Take `CCCCCCOc1ccc(C(=O)CCN(C)C)cc1F`: the Papp is 7000 nm/s.

`CCCCCCS(=O)(=O)c1cc(Cl)c(C(=O)CCN2CCN(C(C)=O)CC2)cc1Cl` displayed a Papp of 6700 nm/s.

For the molecule `CCCCCCOc1cc(Cl)c(C(=O)CCN(C)C)c(Cl)c1`, the Papp was 7000 nm/s.

Consider `CCCCCC(=O)Nc1ccc(C(=O)CCN(C)C)cc1`, for which the Papp worked out at 5600 nm/s.

For the molecule `CCCCCCOc1ccc(C(=O)CCN(C)C)cc1-c1ccccc1`, the Papp was found to be 8300 nm/s.

In the case of `CCCCCCOc1c(C)cc(C(=O)CCN(C)C)cc1C`, the Papp amounted to 7300 nm/s.

In turn, `CCCCCCNC(=O)c1ccc(C(=O)CCN(C)C)cc1` showed a Papp of 7700 nm/s.

For `CCCCCCSc1cc(C)c(C(=O)CCN2CC2C)c(C)c1` (configuration not stated), the Papp was determined as 7700 nm/s.

For the molecule `CCCCCCOc1cc(Cl)c(C(=O)CCN2CC2C)cc1Cl` (configuration not stated), the apparent permeability (Papp) amounted to 8100 nm/s.

`CCCCCCOc1ccc2c(c1)CC(CN(C)C)C2=O` (configuration not stated): the Papp was 2300 nm/s.

As to `CCCCCCOc1ccc(C(=O)CCN(C)C)c(C(F)(F)F)c1`, the Papp came to 5000 nm/s.

The molecule `CCCCCCOc1ccc(C(=O)CCN(C)C)cc1S(C)(=O)=O` showed a Papp of 7300 nm/s.

The molecule `CCCCCCOc1ccc(C(=O)CCNc2ccccc2)cc1` yielded a Papp of 2 nm/s.

The molecule `CCCCCCS(=O)(=O)c1cc(Cl)c(C(=O)CCN(C)C)cc1Cl` had a Papp of 900 nm/s.

For `CCCCCCOc1ccc(C(=O)CCN(C)C)cc1Br`, the apparent permeability (Papp) is 4600 nm/s.

On to `CCCCCCS(=O)(=O)c1cc(C)c(C(=O)CCN2CCNC(=O)C2)c(C)c1`, for which the Papp amounted to 4800 nm/s.

`CCCCCCS(=O)(=O)c1ccc(C(=O)CCN2CCN(S(=O)(=O)CC)CC2)c(Cl)c1Cl` yielded a Papp of 3800 nm/s.

For `CCCCNC(=O)Nc1ccc(C(=O)CCN(C)C)cc1`, the Papp was 100 nm/s.

On to `CCCCCCSc1cc(Cl)c(C(=O)CCN2CCOCC2)c(Cl)c1`, for which the Papp is 100 nm/s.

Take `CCCCCCS(=O)(=O)c1cc(Cl)c(C(=O)CCN2CCOCC2)cc1Cl`: the apparent permeability coefficient (Papp) stood at 6800 nm/s.

In turn, `CCCCCCS(=O)(=O)c1cc(Cl)c(C(=O)CCN2CCN(C(C)=O)CC2)c(Cl)c1` returned a Papp of 4800 nm/s.

Molecule `CCCCCCS(=O)(=O)c1ccc(C(=O)CCN2CCNC(=O)C2)c(Cl)c1` gave a Papp of 2400 nm/s.

`CCCCCCOc1cc(C(C)C)c(C(=O)CCN(C)C)cc1C` gave a Papp of 8600 nm/s.

On to `CCCCCCSc1cc(Cl)c(C(=O)CCN2CC2C)c(Cl)c1` (configuration not stated), for which the Papp came to 1900 nm/s.

In turn, `CCCCCCSc1ccc(C(=O)CCN2CCN(S(=O)(=O)CC)CC2)c(Cl)c1Cl` displayed a Papp of 300 nm/s.

`CCCCCCOc1ccc(C(=O)CCN(C)C)c(I)c1` showed a Papp of 2700 nm/s.

Take `CCCCCCOc1ccc(C(=O)CCN(C)C)c2ccccc12`: the Papp is 6600 nm/s.

`CCCCCCSc1ccc(C(=O)CCN2CC2C)c(Cl)c1Cl` (configuration not stated) displayed a Papp of 700 nm/s.

As for `CCCCCCOc1ccc(C(=O)CCN(C)C)c(N(C)C)c1`, the Papp came to 1700 nm/s.

Molecule `CCCCCCSc1ccc(C(=O)CCN2CC2C)c(Cl)c1` (configuration not stated) yielded a Papp of 5000 nm/s.

In the case of `CCCCCCSc1cc(Cl)c(C(=O)CCN2CCN(S(=O)(=O)CC)CC2)c(Cl)c1`, the apparent permeability coefficient (Papp) turned out to be 500 nm/s.

In turn, `CCCCCCS(=O)(=O)c1ccc(C(=O)CCN2CCN(C(C)=O)CC2)c(Cl)c1` gave a Papp of 3600 nm/s.

In the case of `CCCCCCS(=O)(=O)c1ccc(C(=O)CCN2CCN(C(C)=O)CC2)c(Cl)c1Cl`, the Papp came out at 7700 nm/s.

As for `CCCCCCSc1ccc(C(=O)CCN(C)C)c(Cl)c1`, the apparent permeability coefficient (Papp) stood at 6100 nm/s.

Take `CCCCCCSc1ccc(C(=O)CCN(C)C)c(Cl)c1Cl`: the Papp was 1400 nm/s.

Consider `CCCCCCS(=O)(=O)c1cc(Cl)c(C(=O)CCN2CC2C)cc1Cl` (configuration not stated), for which the Papp came out at 2600 nm/s.

In turn, `CCCCCCOc1ccc2c(c1)OCC(CN(C)C)C2=O` (configuration not stated) had a Papp of 7000 nm/s.

`CCCCCCOc1ccc(C(=O)CCN(C)C)cc1C(C)(C)C`: the Papp was determined as 1900 nm/s.

Molecule `CCCCCCOc1cccc(C(=O)CCN(C)C)c1` yielded a Papp of 8300 nm/s.

For `CCCCCCOc1ccc(C(=O)CCNc2cccc(Cl)c2)cc1`, the Papp was 20 nm/s.

Regarding `CCCCCCOc1ccc(C(=O)CCN(C)C)c(C)c1`, the Papp was 7500 nm/s.

The molecule `CCCCCCOc1ccc(C(=O)CCN(C)C)cc1OC` had a Papp of 9500 nm/s.

As for `CCCCCCOc1ccc(C(=O)CCN(CCCC)CCCC)cc1`, the Papp turned out to be 5600 nm/s.

`CCOCCOc1ccc(C(=O)CCN(C)C)cc1` gave an apparent permeability (Papp) of 1600 nm/s.

On to `CCCCCCS(=O)(=O)c1cc(Cl)c(C(=O)CCN2CCN(S(=O)(=O)CC)CC2)cc1Cl`, for which the Papp amounted to 7300 nm/s.

`CCCCCCOc1ccc2c(c1)CCC(CN(C)C)C2=O` (configuration not stated) showed a Papp of 7100 nm/s.

As to `CCCN1CCN(c2ccc(C(=O)CCN(C)C)cc2)CC1`, the Papp is 3200 nm/s.

Molecule `CCCCCCS(=O)(=O)c1cc(Cl)c(C(=O)CCN(C)C)c(Cl)c1` registered a Papp of 1700 nm/s.

Molecule `CCCCCCS(=O)(=O)c1cc(Cl)c(C(=O)CCN2CC2C)c(Cl)c1` (configuration not stated) gave a Papp of 9800 nm/s.

In the case of `CCCCCCS(=O)(=O)c1ccc(C(=O)CCN2CCOCC2)c(Cl)c1Cl`, the Papp stood at 5600 nm/s.

Regarding `CCCCCCOc1ccc(C(=O)C(CN(C)C)c2ccccc2)cc1` (configuration not stated), the Papp turned out to be 9100 nm/s.

For `CCCCCCOc1ccc(C(=O)CCN2CC2C)c(Cl)c1Cl` (configuration not stated), the Papp was found to be 3700 nm/s.

The molecule `CCCCCCOc1cc(Cl)c(C(=O)CCN2CC2C)c(Cl)c1` (configuration not stated) came in with a Papp above 10 nm/s.

The molecule `CCCCCCOc1cc(Cl)c(C(=O)CCN2CCOCC2)c(Cl)c1` yielded a Papp above 10 nm/s.

For the molecule `CCCCCCSc1cc(Cl)c(C(=O)CCN2CCN(S(=O)(=O)CC)CC2)cc1Cl`, the Papp was found to be 200 nm/s.

For the molecule `CCCCCCOc1ccc(C(=O)CCN(C)C)c(S(C)(=O)=O)c1`, the Papp was determined as 8500 nm/s.

Regarding `CCCCCCS(=O)(=O)c1ccc(C(=O)CCN2CC2C)c(Cl)c1` (configuration not stated), the Papp stood at 1600 nm/s.

As to `CCCCCCSc1cc(C)c(C(=O)CCN2CCN(S(=O)(=O)CC)CC2)c(C)c1`, the Papp turned out to be 1600 nm/s.

As to `CCCCCCSc1ccc(C(=O)CCN2CCN(S(=O)(=O)CC)CC2)c(Cl)c1`, the Papp came to 7400 nm/s.

On to `CCCCCCS(=O)(=O)c1ccc(C(=O)CCN(C)C)cc1`, for which the Papp stood at 7800 nm/s.

Consider `CCCCCCS(=O)(=O)c1ccc(C(=O)CCN2CC2C)c(Cl)c1Cl` (configuration not stated), for which the Papp was determined as 4400 nm/s.

`CCCCCCOc1ccc(C(=O)CCN2CCOCC2)c(Cl)c1Cl` had a Papp of 9300 nm/s.

For the molecule `CCCCCCOc1ccc(C(=O)CCN(C)C)c(Br)c1`, the Papp was found to be 800 nm/s.

`CCCCCCS(=O)(=O)c1ccc(C(=O)CCN(C)C)c(Cl)c1Cl`: the Papp is 2200 nm/s.

Regarding `CCCCCCSc1cc(Cl)c(C(=O)CCN2CCNC(=O)C2)cc1Cl`, the Papp is 8100 nm/s.

As to `CCCCCCOc1ccc(C(=O)CCN(C)C)cc1I`, the Papp was 5400 nm/s.

Molecule `CCCCCCOc1ccc(C(=O)CCN2CC2C)c(Cl)c1` (configuration not stated) had a Papp of 8700 nm/s.

In turn, `CCCCCCS(=O)(=O)c1cc(C)c(C(=O)CCN2CCN(C(C)=O)CC2)c(C)c1` registered a Papp of 4700 nm/s.

Take `CCCCCCOc1ccc(C(=O)CCN(C)C)cc1C(F)(F)F`: the Papp is 9300 nm/s.

Regarding `CCCCCCS(=O)(=O)c1ccc(C(=O)CCN2CCOCC2)c(Cl)c1`, the Papp turned out to be 7600 nm/s.

In turn, `CCCCCCOc1cc(C)c(C(=O)CCN2CC2C)c(C)c1` (configuration not stated) displayed a Papp of 9300 nm/s.

`CCCCCCOc1ccc(C(=O)CCN2CCN(S(=O)(=O)CC)CC2)c(Cl)c1Cl` came in with an apparent permeability coefficient (Papp) above 10 nm/s.

Take `CCCCCCS(=O)(=O)c1cc(Cl)c(C(=O)CCN2CCNC(=O)C2)cc1Cl`: the Papp came out at 5400 nm/s.

As to `CCCCCCOc1ccc(-c2ccc(C(=O)CCN(C)C)cc2)cc1`, the Papp is 1500 nm/s.

For `CCCCCCSc1ccc(C(=O)CCN2CCOCC2)c(Cl)c1Cl`, the Papp is 1700 nm/s.

For orientation: Papp means a coefficient for how fast a substance crosses the barrier. A low value points to poor permeation.
